Source: US8846698B2, “Pyrrolo[2,3-d]pyrimidine tropomysin-related kinase inhibitors” (Pfizer Limited, priority 2011, dated 2014)

What follows are compounds tested against TRKA (Homo sapiens (Human), UniProt P04629) (assay: Isolated TRK enzyme assay (HTRF KinEASE-TK), TRKA). Conditions: read-out: Trka enzyme (IC50).
Format: biochemical

Sequence of TRKA (P04629 441-796): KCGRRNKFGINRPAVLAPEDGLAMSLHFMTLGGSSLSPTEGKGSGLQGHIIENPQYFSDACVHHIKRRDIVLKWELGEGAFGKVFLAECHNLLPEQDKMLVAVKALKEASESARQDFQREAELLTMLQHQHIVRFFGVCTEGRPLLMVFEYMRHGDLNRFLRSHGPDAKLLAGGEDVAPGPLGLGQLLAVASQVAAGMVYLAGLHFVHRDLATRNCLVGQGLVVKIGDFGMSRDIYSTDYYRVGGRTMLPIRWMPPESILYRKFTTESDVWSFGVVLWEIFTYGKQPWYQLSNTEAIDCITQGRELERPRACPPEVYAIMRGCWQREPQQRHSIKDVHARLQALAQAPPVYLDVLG

SMILES	IC50 [nM]
Cc1cn(CC(=O)Nc2cncc(C(=O)c3cn(C(C)C)c4ncncc34)c2)nn1 [Example 162, N-{5-[(7-isopropyl-7H-pyrrolo[2,3-d]pyrimidin-5-yl)carbonyl]pyridin-3-yl}-2-(4-methyl-1H-1,2,3-triazol-1-yl)acetamide]	324
Cc1[nH]nc(-c2ccccc2)c1CC(=O)Nc1cncc(C(=O)c2cn(C(C)C)c3ncncc23)c1 [Example 163, N-{5-[(7-isopropyl-7H-pyrrolo[2,3-d]pyrimidin-5-yl)carbonyl]pyridin-3-yl}-2-(5-methyl-3-phenyl-1H-pyrazol-4-yl)acetamide]	1840
CSc1ncc(CC(=O)Nc2cncc(C(=O)c3cn(C(C)C)c4ncncc34)c2)cn1 [Example 164, N-{5-[(7-isopropyl-7H-pyrrolo[2,3-d]pyrimidin-5-yl)carbonyl]pyridin-3-yl}-2-[2-(methylthio)pyrimidin-5-yl]acetamide]	133
CC(C)n1cc(C(=O)c2cncc(NC(=O)Cc3ncccn3)c2)c2cncnc21 [Example 165, N-{5-[(7-isopropyl-7H-pyrrolo[2,3-d]pyrimidin-5-yl)carbonyl]pyridin-3-yl}-2-pyrimidin-2-ylacetamide]	3400
Cn1cc(C(=O)c2cncc(NC(=O)Cc3cc(F)ccc3C(F)(F)F)c2)c2cncnc21 [Example 167, 2-[5-Fluoro-2-(trifluoromethyl)phenyl]-N-{5-[(7-methyl-7H-pyrrolo[2,3-d]pyrimidin-5-yl)carbonyl]pyridin-3-yl}acetamide]	3470
Cc1cccc(CC(=O)Nc2cncc(C(=O)c3cn(C)c4ncncc34)c2)c1 [Example 168, 2-(3-methylphenyl)-N-{5-[(7-methyl-7H-pyrrolo[2,3-d]pyrimidin-5-yl)carbonyl]pyridin-3-yl}acetamide]	702
Cn1cc(C(=O)c2cncc(NC(=O)Cc3ccccc3C(F)(F)F)c2)c2cncnc21 [Example 169, N-{5-[(7-methyl-7H-pyrrolo[2,3-d]pyrimidin-5-yl)carbonyl]pyridin-3-yl}-2-[2-(trifluoromethyl)phenyl]acetamide]	3100
Cn1cc(C(=O)c2cncc(NC(=O)Cc3cc(F)cc(F)c3)c2)c2cncnc21 [Example 170, 2-(3,5-difluorophenyl)-N-{5-[(7-methyl-7H-pyrrolo[2,3-d]pyrimidin-5-yl)carbonyl]pyridin-3-yl}acetamide]	3100
Cn1cc(C(=O)c2cncc(NC(=O)Cc3c(F)cc(F)cc3F)c2)c2cncnc21 [Example 171, N-{5-[(7-methyl-7H-pyrrolo[2,3-d]pyrimidin-5-yl)carbonyl]pyridin-3-yl}-2-(2,4,6-trifluorophenyl)acetamide]	1280
Cn1cc(C(=O)c2cncc(NC(=O)Cc3c(F)ccc(F)c3F)c2)c2cncnc21 [Example 172, N-{5-[(7-methyl-7H-pyrrolo[2,3-d]pyrimidin-5-yl)carbonyl]pyridin-3-yl}-2-(2,3,6-trifluorophenyl)acetamide]	3840
Cn1cc(C(=O)c2cncc(NC(=O)Cc3ccc(S(C)(=O)=O)cc3)c2)c2cncnc21 [Example 173, N-{5-[(7-methyl-7H-pyrrolo[2,3-d]pyrimidin-5-yl)carbonyl]pyridin-3-yl}-2-[4-(methylsulfonyl)phenyl]acetamide]	9810
Cn1cc(C(=O)c2cncc(NC(=O)Cc3ccc(C(F)(F)F)c(F)c3)c2)c2cncnc21 [Example 174, 2-[3-fluoro-4-(trifluoromethyl)phenyl]-N-{5-[(7-methyl-7H-pyrrolo[2,3-d]pyrimidin-5-yl)carbonyl]pyridin-3-yl}acetamide]	210
COc1cccc(CC(=O)Nc2cncc(C(=O)c3cn(C)c4ncncc34)c2)c1 [Example 175, 2-(3-methoxyphenyl)-N-{5-[(7-methyl-7H-pyrrolo[2,3-d]pyrimidin-5-yl)carbonyl]pyridin-3-yl}acetamide]	2590
Cn1cc(C(=O)c2cncc(NC(=O)Cc3cccc(OC(F)(F)F)c3)c2)c2cncnc21 [Example 176, N-{5-[(7-methyl-7H-pyrrolo[2,3-d]pyrimidin-5-yl)carbonyl]pyridin-3-yl}-2-[3-(trifluoromethoxy)phenyl]acetamide]	165
Cn1cc(C(=O)c2cncc(NC(=O)Cc3cc(F)cc(F)c3F)c2)c2cncnc21 [Example 177, N-{5-[(7-methyl-7H-pyrrolo[2,3-d]pyrimidin-5-yl)carbonyl]pyridin-3-yl}-2-(2,3,5-trifluorophenyl)acetamide]	3100
Cc1ccc2ccc(CC(=O)Nc3cncc(C(=O)c4cn(C)c5ncncc45)c3)cc2n1 [Example 178, N-{5-[(7-methyl-7H-pyrrolo[2,3-d]pyrimidin-5-yl)carbonyl]pyridin-3-yl}-2-(2-methylquinolin-7-yl)acetamide]	3100
Cn1cc(C(=O)c2cncc(NC(=O)Cc3ccccc3)c2)c2cncnc21 [Example 179, N-{5-[(7-methyl-7H-pyrrolo[2,3-d]pyrimidin-5-yl)carbonyl]pyridin-3-yl}-2-phenylacetamide]	3080
Cn1cc(C(=O)c2cncc(NC(=O)Cc3c(F)cccc3Cl)c2)c2cncnc21 [Example 180, 2-(2-chloro-6-fluorophenyl)-N-{5-[(7-methyl-7H-pyrrolo[2,3-d]pyrimidin-5-yl)carbonyl]pyridin-3-yl}acetamide]	3100

SMILES	IC50 [nM]
COc1ccc(CC(=O)Nc2cncc(C(=O)c3cn(C)c4ncncc34)c2)cc1 [Example 181, 2-(4-methoxyphenyl)-N-{5-[(7-methyl-7H-pyrrolo[2,3-d]pyrimidin-5-yl)carbonyl]pyridin-3-yl}acetamide]	3100
Cn1cc(C(=O)c2cncc(NC(=O)Cc3ccc(SC(F)(F)F)cc3)c2)c2cncnc21 [Example 182, N-{5-[(7-methyl-7H-pyrrolo[2,3-d]pyrimidin-5-yl)carbonyl]pyridin-3-yl}-2-{4-[(trifluoromethyl)thio]phenyl}acetamide]	543
Cn1cc(C(=O)c2cncc(NC(=O)Cc3ccc(-c4ccccc4)cc3)c2)c2cncnc21 [Example 183, 2-biphenyl-4-yl-N-{5-[(7-methyl-7H-pyrrolo[2,3-d]pyrimidin-5-yl)carbonyl]pyridin-3-yl}acetamide]	1850
Cn1cc(C(=O)c2cncc(NC(=O)Cc3cc(F)c(F)cc3F)c2)c2cncnc21 [Example 184, N-{5-[(7-methyl-7H-pyrrolo[2,3-d]pyrimidin-5-yl)carbonyl]pyridin-3-yl}-2-(2,4,5-trifluorophenyl)acetamide]	579
Cn1cc(C(=O)c2cncc(NC(=O)Cc3cccc(SC(F)(F)F)c3)c2)c2cncnc21 [Example 185, N-{5-[(7-methyl-7H-pyrrolo[2,3-d]pyrimidin-5-yl)carbonyl]pyridin-3-yl}-2-{3-[(trifluoromethyl)thio]phenyl}acetamide]	67.4
Cc1ccc(CC(=O)Nc2cncc(C(=O)c3cn(C)c4ncncc34)c2)cc1 [Example 186, 2-(4-methylphenyl)-N-{5-[(7-methyl-7H-pyrrolo[2,3-d]pyrimidin-5-yl)carbonyl]pyridin-3-yl}acetamide]	719
Cn1cc(C(=O)c2cncc(NC(=O)Cc3cc(F)c(F)c(F)c3)c2)c2cncnc21 [Example 187, N-{5-[(7-methyl-7H-pyrrolo[2,3-d]pyrimidin-5-yl)carbonyl]pyridin-3-yl}-2-(3,4,5-trifluorophenyl)acetamide]	2630
Cc1ccc(CC(=O)Nc2cncc(C(=O)c3cn(C)c4ncncc34)c2)c(C)c1 [Example 188, 2-(2,4-dimethylphenyl)-N-{5-[(7-methyl-7H-pyrrolo[2,3-d]pyrimidin-5-yl)carbonyl]pyridin-3-yl}acetamide]	277
Cn1cc(C(=O)c2cncc(NC(=O)Cc3ccc4c(c3)CCO4)c2)c2cncnc21 [Example 189, 2-(2,3-dihydro-1-benzofuran-5-yl)-N-{5-[(7-methyl-7H-pyrrolo[2,3-d]pyrimidin-5-yl)carbonyl]pyridin-3-yl}acetamide]	836
Cn1cc(C(=O)c2cncc(NC(=O)Cc3cc(F)ccc3F)c2)c2cncnc21 [Example 190, 2-(2,5-difluorophenyl)-N-{5-[(7-methyl-7H-pyrrolo[2,3-d]pyrimidin-5-yl)carbonyl]pyridin-3-yl}acetamide]	820
Cn1cc(C(=O)c2cncc(NC(=O)Cc3ccc(F)cc3F)c2)c2cncnc21 [Example 191, 2-(2,4-difluorophenyl)-N-{5-[(7-methyl-7H-pyrrolo[2,3-d]pyrimidin-5-yl)carbonyl]pyridin-3-yl}acetamide]	873
Cn1cc(C(=O)c2cncc(NC(=O)Cc3cccc(C(F)(F)F)c3F)c2)c2cncnc21 [Example 192, 2-[2-fluoro-3-(trifluoromethyl)phenyl]-N-{5-[(7-methyl-7H-pyrrolo[2,3-d]pyrimidin-5-yl)carbonyl]pyridin-3-yl}acetamide]	173
Cn1cc(C(=O)c2cncc(NC(=O)Cc3c(F)cccc3F)c2)c2cncnc21 [Example 193, 2-(2,6-difluorophenyl)-N-{5-[(7-methyl-7H-pyrrolo[2,3-d]pyrimidin-5-yl)carbonyl]pyridin-3-yl}acetamide]	3570
Cn1cc(C(=O)c2cncc(NC(=O)Cc3cccc(C(F)(F)F)c3)c2)c2cncnc21 [Example 194, N-{5-[(7-methyl-7H-pyrrolo[2,3-d]pyrimidin-5-yl)carbonyl]pyridin-3-yl}-2-[3-(trifluoromethyl)phenyl]acetamide]	101
Cn1cc(C(=O)c2cncc(NC(=O)Cc3ccc(F)c(F)c3)c2)c2cncnc21 [Example 195, 2-(3,4-difluorophenyl)-N-{5-[(7-methyl-7H-pyrrolo[2,3-d]pyrimidin-5-yl)carbonyl]yridine-3-yl}acetamide]	835
Cn1cc(C(=O)c2cncc(NC(=O)Cc3ccc(OC(F)(F)F)cc3)c2)c2cncnc21 [Example 196, N-{5-[(7-methyl-7H-pyrrolo[2,3-d]pyrimidin-5-yl)carbonyl]yridine-3-yl}-2-[4-(trifluoromethoxy)phenyl]acetamide]	791
Cn1cc(C(=O)c2cncc(NC(=O)Cc3cccc(Cl)c3)c2)c2cncnc21 [Example 197, 2-(3-chlorophenyl)-N-{5-[(7-methyl-7H-pyrrolo[2,3-d]pyrimidin-5-yl)carbonyl]yridine-3-yl}acetamide]	430
